Measured values from article PMC4286194 (Biochemical Journal, 2015).

Legend:
Assay in all cases: Kinase profiling
Type in all cases: biochemical
DDR2 = biological target: T1, DDR2 (Homo sapiens, UniProt Q16832)
T1 sequence (Q16832 22-855): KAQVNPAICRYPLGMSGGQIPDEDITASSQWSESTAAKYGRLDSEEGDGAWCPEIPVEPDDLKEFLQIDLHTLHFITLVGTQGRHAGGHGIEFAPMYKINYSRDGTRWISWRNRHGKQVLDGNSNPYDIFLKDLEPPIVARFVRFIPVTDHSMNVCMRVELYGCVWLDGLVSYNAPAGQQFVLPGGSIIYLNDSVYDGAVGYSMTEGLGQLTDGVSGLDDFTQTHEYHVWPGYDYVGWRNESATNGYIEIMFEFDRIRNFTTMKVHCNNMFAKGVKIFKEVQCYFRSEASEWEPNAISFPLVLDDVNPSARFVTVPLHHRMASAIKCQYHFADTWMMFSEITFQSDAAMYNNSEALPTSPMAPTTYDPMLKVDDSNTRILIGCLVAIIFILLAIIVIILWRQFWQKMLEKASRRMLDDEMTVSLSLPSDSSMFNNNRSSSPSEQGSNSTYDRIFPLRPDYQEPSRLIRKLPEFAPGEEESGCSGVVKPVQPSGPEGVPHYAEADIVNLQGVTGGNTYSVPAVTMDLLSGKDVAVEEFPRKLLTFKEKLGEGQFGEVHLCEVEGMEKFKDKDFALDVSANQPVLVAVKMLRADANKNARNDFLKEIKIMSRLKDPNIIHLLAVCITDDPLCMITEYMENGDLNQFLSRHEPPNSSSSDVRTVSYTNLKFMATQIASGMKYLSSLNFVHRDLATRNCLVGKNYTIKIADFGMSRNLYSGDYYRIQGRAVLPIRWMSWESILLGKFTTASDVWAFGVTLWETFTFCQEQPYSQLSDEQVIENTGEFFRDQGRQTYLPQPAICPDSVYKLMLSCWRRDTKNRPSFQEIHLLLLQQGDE

HIPK1 = HIPK1 (Homo sapiens, UniProt Q86Z02)
IKK beta = biological target: T2, IKK beta (Homo sapiens, UniProt O14920)
T2 sequence (O14920 1-756): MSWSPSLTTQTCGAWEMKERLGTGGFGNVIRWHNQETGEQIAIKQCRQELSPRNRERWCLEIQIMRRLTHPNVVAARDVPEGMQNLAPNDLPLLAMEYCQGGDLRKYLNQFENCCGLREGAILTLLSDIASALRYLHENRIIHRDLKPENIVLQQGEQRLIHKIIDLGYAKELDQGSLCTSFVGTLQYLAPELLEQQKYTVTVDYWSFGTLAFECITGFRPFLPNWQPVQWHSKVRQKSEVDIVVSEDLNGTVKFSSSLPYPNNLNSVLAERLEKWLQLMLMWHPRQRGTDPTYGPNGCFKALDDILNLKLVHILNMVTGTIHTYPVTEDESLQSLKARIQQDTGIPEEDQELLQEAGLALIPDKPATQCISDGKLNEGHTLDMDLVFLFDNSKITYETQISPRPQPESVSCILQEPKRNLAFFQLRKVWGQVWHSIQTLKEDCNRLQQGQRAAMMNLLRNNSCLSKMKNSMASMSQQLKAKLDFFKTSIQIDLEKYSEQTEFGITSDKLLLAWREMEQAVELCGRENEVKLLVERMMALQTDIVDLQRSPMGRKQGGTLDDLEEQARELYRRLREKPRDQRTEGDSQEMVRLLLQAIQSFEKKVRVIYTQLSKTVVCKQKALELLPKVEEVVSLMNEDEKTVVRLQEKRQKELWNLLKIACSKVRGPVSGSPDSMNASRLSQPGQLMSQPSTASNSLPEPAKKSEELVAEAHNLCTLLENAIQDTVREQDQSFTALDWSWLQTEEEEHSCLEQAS

IRAK1 = IRAK1 (Homo sapiens, UniProt P51617)
S6K1 = S6K1 (Homo sapiens, UniProt P23443)
SmMLCK = SmMLCK (Homo sapiens, UniProt Q15746)
TTBK1 = TTBK1 (Homo sapiens, UniProt Q5TCY1)
ULK2 = biological target: T3, ULK2 (Homo sapiens, UniProt Q8IYT8)
T3 sequence (Q8IYT8 1-1036): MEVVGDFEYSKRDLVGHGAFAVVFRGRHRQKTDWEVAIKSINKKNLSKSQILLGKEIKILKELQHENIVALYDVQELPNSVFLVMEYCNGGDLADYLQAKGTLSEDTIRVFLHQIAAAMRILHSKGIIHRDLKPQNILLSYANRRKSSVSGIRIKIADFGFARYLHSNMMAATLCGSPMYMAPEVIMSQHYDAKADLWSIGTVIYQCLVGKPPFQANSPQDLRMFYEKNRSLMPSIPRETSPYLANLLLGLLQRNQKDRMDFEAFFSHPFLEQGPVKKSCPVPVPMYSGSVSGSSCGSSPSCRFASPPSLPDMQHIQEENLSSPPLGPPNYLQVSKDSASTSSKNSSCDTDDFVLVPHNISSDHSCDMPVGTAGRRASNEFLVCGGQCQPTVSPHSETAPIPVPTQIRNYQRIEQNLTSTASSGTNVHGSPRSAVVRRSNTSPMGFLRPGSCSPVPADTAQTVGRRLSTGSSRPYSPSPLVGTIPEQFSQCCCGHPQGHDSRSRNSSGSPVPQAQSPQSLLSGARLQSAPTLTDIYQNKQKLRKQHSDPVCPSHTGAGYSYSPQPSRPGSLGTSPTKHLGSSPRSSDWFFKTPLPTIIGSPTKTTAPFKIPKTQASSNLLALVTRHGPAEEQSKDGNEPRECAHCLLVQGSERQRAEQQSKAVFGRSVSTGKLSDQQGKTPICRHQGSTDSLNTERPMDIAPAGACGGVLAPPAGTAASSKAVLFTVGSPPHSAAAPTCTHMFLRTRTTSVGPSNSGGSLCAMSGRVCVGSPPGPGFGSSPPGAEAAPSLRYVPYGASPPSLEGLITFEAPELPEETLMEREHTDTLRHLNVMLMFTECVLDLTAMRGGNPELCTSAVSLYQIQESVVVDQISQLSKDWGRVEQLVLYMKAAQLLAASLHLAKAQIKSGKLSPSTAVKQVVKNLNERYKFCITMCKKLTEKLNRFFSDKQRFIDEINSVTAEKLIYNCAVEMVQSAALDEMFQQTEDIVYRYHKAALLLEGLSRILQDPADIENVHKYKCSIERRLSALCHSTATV

TTBK1, sequence (Q5TCY1 whole entry): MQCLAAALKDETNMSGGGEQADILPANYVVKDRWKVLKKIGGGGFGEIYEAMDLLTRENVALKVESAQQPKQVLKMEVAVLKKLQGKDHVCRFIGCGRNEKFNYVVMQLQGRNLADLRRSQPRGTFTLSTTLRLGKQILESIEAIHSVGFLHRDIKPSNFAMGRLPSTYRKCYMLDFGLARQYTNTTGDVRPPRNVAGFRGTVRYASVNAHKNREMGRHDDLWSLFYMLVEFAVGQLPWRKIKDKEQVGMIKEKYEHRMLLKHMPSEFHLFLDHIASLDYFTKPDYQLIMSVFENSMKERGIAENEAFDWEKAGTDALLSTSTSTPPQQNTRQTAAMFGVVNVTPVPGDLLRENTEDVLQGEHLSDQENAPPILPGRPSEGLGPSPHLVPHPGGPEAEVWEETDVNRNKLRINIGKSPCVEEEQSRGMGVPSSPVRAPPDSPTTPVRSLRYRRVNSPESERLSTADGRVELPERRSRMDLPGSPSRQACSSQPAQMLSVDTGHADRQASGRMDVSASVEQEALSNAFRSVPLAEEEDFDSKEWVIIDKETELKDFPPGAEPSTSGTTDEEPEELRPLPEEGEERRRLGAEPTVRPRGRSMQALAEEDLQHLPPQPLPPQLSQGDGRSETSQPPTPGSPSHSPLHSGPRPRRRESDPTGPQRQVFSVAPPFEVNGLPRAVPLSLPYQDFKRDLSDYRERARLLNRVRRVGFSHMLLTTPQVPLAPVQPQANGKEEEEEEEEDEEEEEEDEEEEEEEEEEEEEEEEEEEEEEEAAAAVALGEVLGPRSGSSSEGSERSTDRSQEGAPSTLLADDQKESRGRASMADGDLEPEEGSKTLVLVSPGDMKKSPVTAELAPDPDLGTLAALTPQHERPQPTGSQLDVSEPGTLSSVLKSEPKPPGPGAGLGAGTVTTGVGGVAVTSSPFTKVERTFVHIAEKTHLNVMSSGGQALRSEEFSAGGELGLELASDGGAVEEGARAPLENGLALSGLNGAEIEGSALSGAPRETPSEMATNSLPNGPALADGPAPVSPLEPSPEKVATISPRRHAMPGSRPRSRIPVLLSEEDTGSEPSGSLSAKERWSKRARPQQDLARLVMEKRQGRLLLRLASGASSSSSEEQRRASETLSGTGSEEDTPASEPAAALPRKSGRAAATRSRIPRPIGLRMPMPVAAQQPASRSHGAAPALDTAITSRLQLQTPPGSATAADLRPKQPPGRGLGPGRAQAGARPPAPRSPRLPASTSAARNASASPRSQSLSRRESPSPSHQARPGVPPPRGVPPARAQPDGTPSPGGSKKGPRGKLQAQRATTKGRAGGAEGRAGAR
IRAK1, sequence (P51617 whole entry): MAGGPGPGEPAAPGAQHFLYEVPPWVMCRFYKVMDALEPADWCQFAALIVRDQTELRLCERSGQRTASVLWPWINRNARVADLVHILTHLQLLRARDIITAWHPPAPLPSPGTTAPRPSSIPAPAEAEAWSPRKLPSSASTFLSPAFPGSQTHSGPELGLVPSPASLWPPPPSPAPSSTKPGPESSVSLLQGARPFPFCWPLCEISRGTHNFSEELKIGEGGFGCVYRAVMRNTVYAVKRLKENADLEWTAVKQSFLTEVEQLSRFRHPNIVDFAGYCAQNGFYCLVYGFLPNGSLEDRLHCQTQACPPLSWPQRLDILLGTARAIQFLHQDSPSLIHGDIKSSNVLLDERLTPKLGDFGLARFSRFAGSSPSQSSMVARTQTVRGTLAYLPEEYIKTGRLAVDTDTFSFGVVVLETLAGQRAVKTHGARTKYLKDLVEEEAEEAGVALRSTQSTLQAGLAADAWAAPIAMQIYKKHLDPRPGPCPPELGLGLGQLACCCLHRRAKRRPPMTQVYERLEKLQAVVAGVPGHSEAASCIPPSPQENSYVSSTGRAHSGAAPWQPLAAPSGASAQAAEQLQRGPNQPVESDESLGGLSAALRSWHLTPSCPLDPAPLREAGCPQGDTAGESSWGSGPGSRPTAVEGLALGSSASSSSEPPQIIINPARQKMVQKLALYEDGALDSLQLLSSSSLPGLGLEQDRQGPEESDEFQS
HIPK1, sequence (Q86Z02 whole entry): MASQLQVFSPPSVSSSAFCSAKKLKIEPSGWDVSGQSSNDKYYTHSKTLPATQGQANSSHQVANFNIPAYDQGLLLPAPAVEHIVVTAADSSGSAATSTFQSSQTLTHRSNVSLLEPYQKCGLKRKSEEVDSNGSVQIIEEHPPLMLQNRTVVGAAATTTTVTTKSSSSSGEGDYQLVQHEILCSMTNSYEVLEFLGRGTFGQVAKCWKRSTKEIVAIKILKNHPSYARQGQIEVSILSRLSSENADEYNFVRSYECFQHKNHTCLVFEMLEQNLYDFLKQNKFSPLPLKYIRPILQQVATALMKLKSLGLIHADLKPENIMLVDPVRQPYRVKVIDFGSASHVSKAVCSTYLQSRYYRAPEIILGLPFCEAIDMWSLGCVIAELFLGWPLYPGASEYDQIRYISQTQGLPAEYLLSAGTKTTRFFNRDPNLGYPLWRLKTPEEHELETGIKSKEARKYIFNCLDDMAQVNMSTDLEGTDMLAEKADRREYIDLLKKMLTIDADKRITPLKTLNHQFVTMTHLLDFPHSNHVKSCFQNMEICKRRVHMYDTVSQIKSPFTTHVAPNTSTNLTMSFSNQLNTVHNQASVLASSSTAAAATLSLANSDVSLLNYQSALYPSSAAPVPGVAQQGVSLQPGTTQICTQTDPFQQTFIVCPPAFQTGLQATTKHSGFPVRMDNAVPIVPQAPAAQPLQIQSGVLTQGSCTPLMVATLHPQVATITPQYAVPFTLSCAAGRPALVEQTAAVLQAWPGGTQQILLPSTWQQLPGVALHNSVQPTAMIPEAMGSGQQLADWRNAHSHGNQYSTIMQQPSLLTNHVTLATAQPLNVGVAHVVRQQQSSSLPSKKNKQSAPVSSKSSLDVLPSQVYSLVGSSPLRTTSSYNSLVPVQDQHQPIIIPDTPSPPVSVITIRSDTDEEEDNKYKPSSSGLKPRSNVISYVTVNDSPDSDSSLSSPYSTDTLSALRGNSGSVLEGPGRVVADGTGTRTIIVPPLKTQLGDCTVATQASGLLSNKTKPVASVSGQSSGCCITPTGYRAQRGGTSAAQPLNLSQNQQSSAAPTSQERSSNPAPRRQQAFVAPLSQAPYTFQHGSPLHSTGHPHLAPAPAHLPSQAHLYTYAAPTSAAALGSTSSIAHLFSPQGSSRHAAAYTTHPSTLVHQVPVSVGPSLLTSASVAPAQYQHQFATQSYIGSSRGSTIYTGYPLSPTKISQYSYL
S6K1, sequence (P23443 whole entry): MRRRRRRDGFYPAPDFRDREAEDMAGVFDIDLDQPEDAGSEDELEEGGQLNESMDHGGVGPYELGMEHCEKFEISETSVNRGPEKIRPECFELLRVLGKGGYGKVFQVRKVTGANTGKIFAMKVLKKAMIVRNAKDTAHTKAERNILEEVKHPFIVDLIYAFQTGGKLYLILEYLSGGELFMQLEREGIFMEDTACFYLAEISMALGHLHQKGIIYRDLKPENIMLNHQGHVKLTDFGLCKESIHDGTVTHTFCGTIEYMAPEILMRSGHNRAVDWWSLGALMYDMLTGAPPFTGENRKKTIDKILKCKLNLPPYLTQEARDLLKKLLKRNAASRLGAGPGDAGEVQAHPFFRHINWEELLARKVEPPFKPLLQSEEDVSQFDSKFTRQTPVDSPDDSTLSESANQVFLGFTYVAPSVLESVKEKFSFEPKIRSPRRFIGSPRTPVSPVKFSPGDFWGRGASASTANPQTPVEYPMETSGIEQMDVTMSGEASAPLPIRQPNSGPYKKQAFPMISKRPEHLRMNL
SmMLCK, sequence (Q15746 923-1914): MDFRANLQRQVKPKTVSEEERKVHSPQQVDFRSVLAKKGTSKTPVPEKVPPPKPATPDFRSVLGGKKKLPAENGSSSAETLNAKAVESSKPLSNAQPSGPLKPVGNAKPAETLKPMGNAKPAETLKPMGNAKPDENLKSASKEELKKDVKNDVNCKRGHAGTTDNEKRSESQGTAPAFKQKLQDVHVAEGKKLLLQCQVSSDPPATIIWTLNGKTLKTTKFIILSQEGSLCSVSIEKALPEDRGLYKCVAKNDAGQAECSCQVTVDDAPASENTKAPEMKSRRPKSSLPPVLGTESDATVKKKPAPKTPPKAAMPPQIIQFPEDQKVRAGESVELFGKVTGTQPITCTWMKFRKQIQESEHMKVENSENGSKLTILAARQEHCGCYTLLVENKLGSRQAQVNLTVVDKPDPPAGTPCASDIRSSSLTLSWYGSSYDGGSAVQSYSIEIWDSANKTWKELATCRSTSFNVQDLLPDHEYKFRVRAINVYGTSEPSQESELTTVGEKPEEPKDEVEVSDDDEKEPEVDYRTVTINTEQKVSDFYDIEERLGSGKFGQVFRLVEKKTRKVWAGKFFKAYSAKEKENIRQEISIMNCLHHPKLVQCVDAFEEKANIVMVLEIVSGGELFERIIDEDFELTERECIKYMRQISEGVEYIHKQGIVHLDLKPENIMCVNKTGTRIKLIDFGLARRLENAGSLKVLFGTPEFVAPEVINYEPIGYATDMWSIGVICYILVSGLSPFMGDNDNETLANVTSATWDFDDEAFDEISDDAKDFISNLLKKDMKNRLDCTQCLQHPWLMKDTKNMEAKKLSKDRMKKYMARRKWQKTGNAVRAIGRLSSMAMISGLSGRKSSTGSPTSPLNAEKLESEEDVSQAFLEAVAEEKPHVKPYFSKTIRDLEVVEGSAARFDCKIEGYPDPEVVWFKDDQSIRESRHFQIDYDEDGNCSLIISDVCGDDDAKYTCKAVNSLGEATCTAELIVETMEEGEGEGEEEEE

| SMILES | remaining activity at 0.1 µM (DDR2) [%] | remaining activity at 1 µM (DDR2) [%] | remaining activity at 0.1 µM (HIPK1) [%] | remaining activity at 1 µM (HIPK1) [%] | remaining activity at 0.1 µM (IKK beta) [%] | remaining activity at 1 µM (IKK beta; 1 µM) [%] | remaining activity at 0.1 µM (IRAK1) [%] | remaining activity at 1 µM (IRAK1) [%] | remaining activity at 0.1 µM (S6K1) [%] | remaining activity at 1 µM (S6K1) [%] | remaining activity at 0.1 µM (SmMLCK) [%] | remaining activity at 1 µM (SmMLCK) [%] | remaining activity at 0.1 µM (TTBK1) [%] | remaining activity at 1 µM (TTBK1) [%] | remaining activity at 0.1 µM (ULK2) [%] | remaining activity at 1 µM (ULK2) [%] |
| --- | --- | --- | --- | --- | --- | --- | --- | --- | --- | --- | --- | --- | --- | --- | --- | --- |
| Cc1nc(Nc2ncc(C(=O)Nc3c(C)cccc3Cl)s2)cc(N2CCN(CCO)CC2)n1 [Dasatinib] | 1 ± 1 | 0 | 105 ± 4 | 122 ± 6 | 97 ± 21 | 99 ± 9 | 96 ± 1 | 108 ± 3 | 108 ± 3 | 113 ± 11 | 111 ± 4 | 111 ± 7 | 112 ± 8 | 112 ± 1 | 101 ± 3 | 91 ± 3 |
| COc1cc(Nc2c(C#N)cnc3cc(OCCCN4CCN(C)CC4)c(OC)cc23)c(Cl)cc1Cl [Bosutinib, bosutinib] | 22 ± 1 | 2 | 95 | 57 | 92 ± 15 |  | 77 ± 3 | 65 | 98 ± 1 | 86 ± 2 | 88 ± 2 | 27 ± 1 | 95 ± 2 | 114 ± 3 | 78 ± 10 | 37 ± 1 |
